Source: patent US20140288074A1, “FUNGICIDAL PYRAZOLES” (E I DU PONT DE NEMOURS AND COMPANY, priority 2013, published 2014)

How the values were obtained:
Format in all cases: in vivo
Botrytis cinerea = test: Test A: preventive spray on tomato seedlings, tomato Botrytis, visual disease rating; details: 200 ppm test suspension, Botrytis cinerea inoculated the day after spraying; for pest or weed control at 200 ppm: 120 h
Procedure: General protocol for preparing test suspensions for Tests A-G: the test compounds were first dissolved in acetone in an amount equal to 3% of the final volume and then suspended at the desired concentration (in ppm) in acetone and purified water (50/50 mix by volume) containing 250 ppm of the surfactant Trem® 014 (polyhydric alcohol esters). The resulting test suspensions were then used in Tests A-G. Each test was conducted in triplicate, and the results were averaged. Spraying a 200 ppm test suspension to the point of run-off on the test plants was the equivalent of a rate of 800 g/ha. Unless otherwise indicated, the rating values indicate a 200 ppm test suspension was used. (An asterisk “*” next to the rating value indicates a 40 ppm test suspension was used.) The test suspension was sprayed to the point of run-off on tomato seedlings. The following day the seedlings were inoculated with a spore suspension of Botrytis cinerea (the causal agent of tomato Botrytis) and incubated in saturated atmosphere at 20° C. for 48 h, and then moved to a growth chamber at 24° C. for 3 additional days, after which time visual disease ratings were made. Results for Tests A-G are given in Table A. In the Table, a rating of 100 indicates 100% disease control and a rating of 0 indicates no disease control (relative to the controls). A hyphen (-) indicates no test results.

Alternaria solani = test: Test B: preventive spray on tomato seedlings, tomato early blight, visual disease rating; details: 200 ppm test suspension, Alternaria solani inoculated the day after spraying
Procedure: General protocol for preparing test suspensions for Tests A-G: the test compounds were first dissolved in acetone in an amount equal to 3% of the final volume and then suspended at the desired concentration (in ppm) in acetone and purified water (50/50 mix by volume) containing 250 ppm of the surfactant Trem® 014 (polyhydric alcohol esters). The resulting test suspensions were then used in Tests A-G. Each test was conducted in triplicate, and the results were averaged. Spraying a 200 ppm test suspension to the point of run-off on the test plants was the equivalent of a rate of 800 g/ha. Unless otherwise indicated, the rating values indicate a 200 ppm test suspension was used. (An asterisk “*” next to the rating value indicates a 40 ppm test suspension was used.) The test suspension was sprayed to the point of run-off on tomato seedlings. The following day the seedlings were inoculated with a spore suspension of Alternaria solani (the causal agent of tomato early blight) and incubated in a saturated atmosphere at 27° C. for 48 h, and then moved to a growth chamber at 20° C. for 5 days, after which time visual disease ratings were made. Results for Tests A-G are given in Table A. In the Table, a rating of 100 indicates 100% disease control and a rating of 0 indicates no disease control (relative to the controls). A hyphen (-) indicates no test results.

[1] = system: Puccinia recondita f. sp. tritici; test: Test F: preventive spray on wheat seedlings, wheat leaf rust, visual disease rating; details: 200 ppm test suspension, Puccinia recondita f. sp. tritici inoculated the day after spraying; for pest or weed control at 200 ppm: 168 h
Procedure: General protocol for preparing test suspensions for Tests A-G: the test compounds were first dissolved in acetone in an amount equal to 3% of the final volume and then suspended at the desired concentration (in ppm) in acetone and purified water (50/50 mix by volume) containing 250 ppm of the surfactant Trem® 014 (polyhydric alcohol esters). The resulting test suspensions were then used in Tests A-G. Each test was conducted in triplicate, and the results were averaged. Spraying a 200 ppm test suspension to the point of run-off on the test plants was the equivalent of a rate of 800 g/ha. Unless otherwise indicated, the rating values indicate a 200 ppm test suspension was used. (An asterisk “*” next to the rating value indicates a 40 ppm test suspension was used.) The test suspension was sprayed to the point of run-off on wheat seedlings. The following day the seedlings were inoculated with a spore suspension of Puccinia recondita f. sp. tritici (the causal agent of wheat leaf rust) and incubated in a saturated atmosphere at 20° C. for 24 h, and then moved to a growth chamber at 20° C. for 6 days, after which time visual disease ratings were made. Results for Tests A-G are given in Table A. In the Table, a rating of 100 indicates 100% disease control and a rating of 0 indicates no disease control (relative to the controls). A hyphen (-) indicates no test results.

Septoria nodorum = test: Test C: preventive spray on wheat seedlings, Septoria glume blotch, visual disease rating; details: 200 ppm test suspension, Septoria nodorum inoculated the day after spraying; for pest or weed control at 200 ppm: Parastagonospora nodorum, 264 h
Procedure: General protocol for preparing test suspensions for Tests A-G: the test compounds were first dissolved in acetone in an amount equal to 3% of the final volume and then suspended at the desired concentration (in ppm) in acetone and purified water (50/50 mix by volume) containing 250 ppm of the surfactant Trem® 014 (polyhydric alcohol esters). The resulting test suspensions were then used in Tests A-G. Each test was conducted in triplicate, and the results were averaged. Spraying a 200 ppm test suspension to the point of run-off on the test plants was the equivalent of a rate of 800 g/ha. Unless otherwise indicated, the rating values indicate a 200 ppm test suspension was used. (An asterisk “*” next to the rating value indicates a 40 ppm test suspension was used.) The test suspension was sprayed to the point of run-off on wheat seedlings. The following day the seedlings were inoculated with a spore suspension of Septoria nodorum (the causal agent of Septoria glume blotch) and incubated in a saturated atmosphere at 24° C. for 48 h, and then moved to a growth chamber at 20° C. for 9 days, after which time visual disease ratings were made. Results for Tests A-G are given in Table A. In the Table, a rating of 100 indicates 100% disease control and a rating of 0 indicates no disease control (relative to the controls). A hyphen (-) indicates no test results.

Septoria tritici = test: Test D: preventive spray on wheat seedlings, wheat leaf blotch, visual disease rating; details: 200 ppm test suspension, Septoria tritici inoculated the day after spraying; for pest or weed control at 200 ppm: Zymoseptoria tritici, 504 h
Procedure: General protocol for preparing test suspensions for Tests A-G: the test compounds were first dissolved in acetone in an amount equal to 3% of the final volume and then suspended at the desired concentration (in ppm) in acetone and purified water (50/50 mix by volume) containing 250 ppm of the surfactant Trem® 014 (polyhydric alcohol esters). The resulting test suspensions were then used in Tests A-G. Each test was conducted in triplicate, and the results were averaged. Spraying a 200 ppm test suspension to the point of run-off on the test plants was the equivalent of a rate of 800 g/ha. Unless otherwise indicated, the rating values indicate a 200 ppm test suspension was used. (An asterisk “*” next to the rating value indicates a 40 ppm test suspension was used.) The test suspension was sprayed to the point of run-off on wheat seedlings. The following day the seedlings were inoculated with a spore suspension of Septoria tritici (the causal agent of wheat leaf blotch) and incubated in saturated atmosphere at 24° C. for 48 h. and then the seedlings were moved to a growth chamber at 20° C. for 19 additional days, after which time visual disease ratings were made. Results for Tests A-G are given in Table A. In the Table, a rating of 100 indicates 100% disease control and a rating of 0 indicates no disease control (relative to the controls). A hyphen (-) indicates no test results.

[2] = system: Blumeria graminis f. sp. tritici; test: Test G: preventive spray on wheat seedlings, wheat powdery mildew, visual disease rating;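 on all read-outs here: rated 8 days after spore dust inoculation at 20 °C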; details: 200 ppm test suspension, Blumeria graminis f. sp. tritici inoculated the day after spraying; for pest or weed control at 200 ppm: 192 h
Procedure: General protocol for preparing test suspensions for Tests A-G: the test compounds were first dissolved in acetone in an amount equal to 3% of the final volume and then suspended at the desired concentration (in ppm) in acetone and purified water (50/50 mix by volume) containing 250 ppm of the surfactant Trem® 014 (polyhydric alcohol esters). The resulting test suspensions were then used in Tests A-G. Each test was conducted in triplicate, and the results were averaged. Spraying a 200 ppm test suspension to the point of run-off on the test plants was the equivalent of a rate of 800 g/ha. Unless otherwise indicated, the rating values indicate a 200 ppm test suspension was used. (An asterisk “*” next to the rating value indicates a 40 ppm test suspension was used.) The test suspension was sprayed to the point of run-off on wheat seedlings. The following day the seedlings were inoculated with a spore dust of Blumeria graminis f. sp. tritici (also known as Erysiphe graminis f. sp. tritici, the causal agent of wheat powdery mildew) and incubated in a growth chamber at 20° C. for 8 days, after which time visual disease ratings were made. Results for Tests A-G are given in Table A. In the Table, a rating of 100 indicates 100% disease control and a rating of 0 indicates no disease control (relative to the controls). A hyphen (-) indicates no test results.

Structure (SMILES)	Test A rating (disease control) (Botrytis cinerea)	Test B rating (disease control) (Alternaria solani)	Test F rating (disease control) [1]	Test C rating (disease control) (Septoria nodorum)	Test D rating (disease control) (Septoria tritici)	Test G rating (disease control) [2]	pest or weed control at 200 ppm (Botrytis cinerea)	pest or weed control at 200 ppm [1]	pest or weed control at 200 ppm (Septoria nodorum)	pest or weed control at 200 ppm (Septoria tritici)	pest or weed control at 200 ppm [2]
Cc1nn(C)c(NC(C)C)c1-c1ccc(F)cc1F [Compound 1]	65%	0%	0%	0%	0%	0%	–	–	–	–	–
Cc1nn(C)c(C(O)C(C)C)c1-c1c(F)cccc1Cl (stereo not drawn) [Compound 24, 4-(2-chloro-6-fluorophenyl)-1,3-dimethyl-α-(1-methylethyl)-1H-pyrazole-5-methanol]	–	–	–	–	–	–	99%	99%	98%	91%	97%
Cc1nn(C)c(OCC(C)C)c1-c1ccc(F)cc1Cl [Compound 29]	0%	–	99%	100%	63%	0%	–	–	–	–	–
Cc1nn(C)c(OCC2CC2)c1-c1ccc(F)cc1Cl [Compound 27, 4-(2-chloro-4-fluorophenyl)-5-(cyclopropylmethoxy)-1,3-dimethyl-1H-pyrazole]	–	–	–	–	–	–	99%	9%	69%	100%	0%
Cc1nn(C)c(OC2CCCCC2)c1-c1ccc(F)cc1Cl [Compound 28, 4-(2-chloro-4-fluorophenyl)-5-(cyclohexyloxy)-1,3-dimethyl-1H-pyrazole]	–	–	–	–	–	–	95%	58%	0%	100%	73%
Cc1nn(C)c(NCC(C)C)c1-c1ccc(F)cc1Br [Compound 44]	0%	–	90%	59%	0%	0%	–	–	–	–	–
CCN(CC)c1c(-c2c(F)cc(F)cc2F)c(C)nn1C [Compound 50]	38%	–	74%	0%	0%	0%	–	–	–	–	–
CNC(c1c(-c2c(F)cccc2Cl)c(C)nn1C)C(C)C (stereo not drawn) [Compound 25, 4-(2-chloro-6-fluorophenyl)-N,1,3-trimethyl-α-(1-methylethyl)-1H-pyrazole-5-methanamine]	–	–	–	–	–	–	0%	99%	100%	25%	99%
CCCCN(CCCC)c1c(-c2ccc(F)cc2Br)c(C)nn1C [Compound 37]	0%	–	99%	99%	0%	0%	–	–	–	–	–
Cc1nn(C)c(C(N)C(C)C)c1-c1c(F)cccc1Cl (centres unmarked) [Compound 32]	0%	–	96%	100%	94%	0%	–	–	–	–	–
Cc1nn(C)c(N2CCOCC2)c1-c1ccc(F)cc1Cl [Compound 40, 4-[4-(2-chloro-4-fluorophenyl)-1,3-dimethyl-1H-pyrazol-5-yl]morpholine]	–	–	–	–	–	–	100%	99%	0%	100%	94%
COCCNc1c(-c2ccc(F)cc2Br)c(C)nn1C [Compound 45]	9%	–	68%	77%	0%	0%	–	–	–	–	–
Cc1nn(C)c(NCC2CC2)c1-c1ccc(F)cc1Br [Compound 48]	98%	–	89%	68%	71%	0%	–	–	–	–	–
CCCCNc1c(-c2ccc(F)cc2Br)c(C)nn1C [Compound 36]	67%	–	100%	100%	50%	0%	–	–	–	–	–
